In PMC6018746, “Activation of the p53-MDM4 regulatory axis defines the anti-tumour response to PRMT5 inhibition through its role in regulating cellular splicing” (Scientific Reports, 2018):
Where two headings read alike, the source gives them in different places.

Test system: panel of 240 cancer cell lines
Assay: 10-day growth/death assay (Eurofins panel)
Assay type: cell-based
Details: Homo sapiens, read-out: gIC50
Excerpt: To further develop these molecules and to guide clinical strategy, it was necessary to understand sensitivity in preclinical models by assessing the anti-tumour activity of the PRMT5 inhibitors in various cancers. […] Lymphoma, including MCL and diffuse large B-cell lymphoma (DLBCL), breast, and multiple myeloma cell lines were among the most sensitive tumour types and had gIC50 values in the low nM range (Fig. 1B). […] Since lymphoma and breast cancer cell lines were among the most sensitive in the proliferation screens, subsequent mechanistic studies were performed in these tumour types.

Structure (SMILES): O=C(NC[C@H](O)CN1CCc2ccccc2C1)c1ccnc(NC2CCC2)c1 [GSK3203591]
- IC50 (22Rv1, 22Rv1): 2480 nM
- IC50 (639-V): 342 nM
- IC50 (647-V): 62 nM
- IC50 (769-P): 203 nM
- IC50 (786-0, 786-O): 20.3 nM
- IC50 (5637.000): 285 nM
- IC50 (A7): 36.7 nM
- IC50 (A101D): 190 nM
- IC50 (A 172, A172): 29.6 nM
- IC50 (A204, A204): 223 nM
- IC50 (A498, A498): 50.7 nM
- IC50 (A549, A549): 80.9 nM
- IC50 (A673, A-673): 119 nM
- IC50 (A-375, A375): 79.6 nM
- IC50 (A-431, A431): 549 nM
- IC50 (ACHN): 38.6 nM
- IC50 (AGS): 2030 nM
- IC50 (AN3-CA, AN3 CA): 254 nM
- IC50 (ARH-77, ARH-77): 44.4 nM
- IC50 (ASPC1, AsPC-1): 302 nM
- IC50 (AU565, AU565): 14.6 nM
- IC50 (BC1, BC-1): 69.6 nM
- IC50 (BE(2)-C, BE(2)C): 803 nM
- IC50 (BFTC-905, BFTC-905): 259 nM
- IC50 (BPH-1, BPH1): 718 nM
- IC50 (BT-20, BT20): 2280 nM
- IC50 (BT-474, BT474): 172 nM
- IC50 (BT-549, BT-549): 59.4 nM
- IC50 (BV-173, BV-173): 10.6 nM
- IC50 (BXPC-3, BxPC-3): 160 nM
- IC50 (BeWo): 1090 nM
- IC50 (C32, C32): 14.1 nM
- IC50 (C-4-II, C-4 II): 266 nM
- IC50 (C-4I): 139 nM
- IC50 (C-33-A, C-33A): 228 nM
- IC50 (CAKI-1, Caki-1): 68.8 nM
- IC50 (CAKI-2, Caki-2): 114 nM
- IC50 (CAL-27, Cal 27): 103 nM
- IC50 (CAL-62, CAL-62): 253 nM
- IC50 (CAMA-1, CAMA-1): 78.9 nM
- IC50 (CAPAN-1, Capan-1): 370 nM
- IC50 (CCF-STTG1, CCF-STTG1): 115 nM
- IC50 (CCRF-CEM, CCRFCEM): 3140 nM
- IC50 (CEM/C1, CEM-C1): 7.92 nM
- IC50 (CFPAC-1, CFPAC-1): 52.3 nM
- IC50 (CGTH-W-1, CGTH-W-1): 82.2 nM
- IC50 (CHL-1, CHL-1): 247 nM
- IC50 (CHP-212, CHP-212): 24 nM
- IC50 (CML-T1, CML-T1): 16.1 nM
- IC50 (COLO 201, Colo 201): 49.6 nM
- IC50 (COLO 205, Colo 205): > 10000 nM
- IC50 (COLO 320DM): 82.5 nM
- IC50 (COLO-320-HSR, Colo 320 HSR): 80.3 nM
- IC50 (COLO-829, COLO 829): 54.4 nM
- IC50 (COR-L23, COR-L23): 147 nM
- IC50 (COR-L105, COR-L105): 314 nM
- IC50 (CRO-AP2, CRO-AP2): 250 nM
- IC50 (Calu-1, Calu1): 3050 nM
- IC50 (Caov-3, CaOV3): 298 nM
- IC50 (Capan-2, Capan-2): 69.7 nM
- IC50 (ChaGo-K-1, ChaGoK1): 1190 nM
- IC50 (D283 Med): 23.5 nM
- IC50 (DB): 2.51 nM
- IC50 (DBTRG-05MG): 156 nM
- IC50 (DK-MG): 89.5 nM
- IC50 (DLD-1, DLD-1): 134 nM
- IC50 (DMS-114, DMS114): 1010 nM
- IC50 (DOHH-2, DOHH-2): 157 nM
- IC50 (Daoy): 270 nM
- IC50 (Daudi): 142 nM
- IC50 (Detroit 562, Detroit 562): 104 nM
- IC50 (DoTc2-4510, DoTc2 4510): 95.8 nM
- IC50 (EB-3, EB-3): 299 nM
- IC50 (EFM-19, EFM-19): 69.5 nM
- IC50 (EM-2, EM-2): 94 nM
- IC50 (ES-2, ES-2): 106 nM
- IC50 (FaDu): 15.4 nM
- IC50 (G-401, G-401): 38.4 nM
- IC50 (G-402, G-402): 99.7 nM
- IC50 (H4): 151 nM
- IC50 (HCT-8, HCT-8): 430 nM
- IC50 (HCT-15, HCT-15): 68.4 nM
- IC50 (HCT-116, HCT-116): 166 nM
- IC50 (HEC-1-A): 2440 nM
- IC50 (HEL 92.1.7, HEL-92-1-7): 9.02 nM
- IC50 (HLE): 174 nM
- IC50 (HLF): 87.7 nM
- IC50 (HMCB): 666 nM
- IC50 (HOS): 223 nM
- IC50 (HPAF-II): 154 nM
- IC50 (HT1197, HT-1197): 98.9 nM
- IC50 (HT-3, HT-3): > 10000 nM
- IC50 (HT-29, HT-29): 95.2 nM
- IC50 (HT-1080, HT-1080): 53.5 nM
- IC50 (HT-1376, HT1376): 297 nM
- IC50 (HT): 206 nM
- IC50 (HUH-6-clone5, HUH-6 Clone 5): 361 nM
- IC50 (HeLa): 230 nM
- IC50 (HepG2, HepG2): 214 nM
- IC50 (Hs 294T): 12.3 nM
- IC50 (Hs 695T): 602 nM
- IC50 (Hs746T, HS 746T): 171 nM
- IC50 (Hs766T): 1120 nM
- IC50 (Hs-578T, Hs 578T): 947 nM
- IC50 (HuCCT-1, HuCCT1): 225 nM
- IC50 (HuP-T4, HuP-T4): 84.9 nM
- IC50 (J82, J82): 83.1 nM
- IC50 (J-RT3-T3-5, J-RT3-T3-5): 43.2 nM
- IC50 (JAR): 485 nM
- IC50 (JEG-3, JEG-3): 216 nM
- IC50 (Jurkat): 130 nM
- IC50 (K562, K562): 146 nM
- IC50 (KATO III): 16.7 nM
- IC50 (KHOS-240S): 124 nM
- IC50 (KLE): > 10000 nM
- IC50 (KPL-1, KPL-1): 1330 nM
- IC50 (L-428, L-428): 330 nM
- IC50 (LNCaP): 2930 nM
- IC50 (LS174T, LS-174T): 170 nM
- IC50 (MC-IXC): 615 nM
- IC50 (MCF7, MCF7): 10.9 nM
- IC50 (MDA-MB-231, MDA MB 231): 56.7 nM
- IC50 (MDA-MB-436, MDA-MB-436): 49.7 nM
- IC50 (MDA-MB-453, MDA MB 453): 64.5 nM
- IC50 (MDA-MB-468, MDA MB 468): 4.83 nM
- IC50 (MEG-01, MEG01): > 10000 nM
- IC50 (MES-SA): 72 nM
- IC50 (MG-63, MG-63): 96 nM
- IC50 (MHH-PREB-1, MHH-PREB-1): > 10000 nM
- IC50 (MIA PaCa-2, Mia PaCa-2): 158 nM
- IC50 (MOLT-3, MOLT-3): 217 nM
- IC50 (MOLT-16, MOLT-16): 54.2 nM
- IC50 (MT-3, MT-3): 46.4 nM
- IC50 (MV4-11, MV-4-11): 65.8 nM
- IC50 (MX1, MX1): 294 nM
- IC50 (Malme-3M, MALME3M): 265 nM
- IC50 (MeWo): 249 nM
- IC50 (NALM-6, NALM-6): 110 nM
- IC50 (NCI-H69, NCI-H69): 144 nM
- IC50 (NCI-H295R): > 10000 nM
- IC50 (NCI-H441, NCIH441): 556 nM
- IC50 (NCI-H446, NCIH446): 570 nM
- IC50 (NCI-H460, NCI-H460): 224 nM
- IC50 (NCI-H508, NCI-H508): 307 nM
- IC50 (NCI-H520, NCI-H520): 15.6 nM
- IC50 (NCI-H596, NCI-H596): 188 nM
- IC50 (NCI-H661, NCI-H661): 152 nM
- IC50 (NCI-H747, NCI-H747): 2580 nM
- IC50 (OCUG-1, OCUG-1): 379 nM
- IC50 (OE19, OE19): 98 nM
- IC50 (OE33, OE33): 231 nM
- IC50 (OVCAR-3, OVCAR3): 51.4 nM
- IC50 (PANC-1, PANC-1): 165 nM
- IC50 (PC-3, PC-3): 873 nM
- IC50 (RD): 639 nM
- IC50 (RKO): 772 nM
- IC50 (RKOAS451, RKO-AS45-1): 113 nM
- IC50 (RKOE6, RKOE6): 210 nM
- IC50 (RL95-2, RL95-2): 218 nM
- IC50 (RPMI-6666, RPMI 6666): 748 nM
- IC50 (RPMI-7951, RPMI-7951): 44.2 nM
- IC50 (RPMI-8226, RPMI 8226): 58.4 nM
- IC50 (Raji): 24.5 nM
- IC50 (Ramos, Ramos (RA 1)): 546 nM
- IC50 (SAOS-2, SaOS2): 48.2 nM
- IC50 (SCC-4, SCC-4): 286 nM
- IC50 (SCC-9, SCC-9): 747 nM
- IC50 (SCC-25, SCC-25): 273 nM
- IC50 (SCaBER): 123 nM
- IC50 (SH-4, SH-4): 75.2 nM
- IC50 (SJRH30, SJRH30): 472 nM
- IC50 (SK-BR-3, SK-BR-3): 76.4 nM
- IC50 (SK-LMS-1, SK-LMS-1): 113 nM
- IC50 (SK-MEL3, SK-MEL-3): 181 nM
- IC50 (SK-MEL-1, SK-MEL-1): 38.7 nM
- IC50 (SK-MEL-28, SK-MEL-28): 239 nM
- IC50 (SK-MES-1, SKMES1): 807 nM
- IC50 (SK-N-AS): 31.9 nM
- IC50 (SK-N-DZ): 257 nM
- IC50 (SK-N-FI): 308 nM
- IC50 (SK-NEP-1, SK-NEP-1): 264 nM
- IC50 (SK-OV-3, SKOV3): 52.6 nM
- IC50 (SK-UT-1, SK-UT-1): 42.1 nM
- IC50 (SKO-007, SKO-007): 84.4 nM
- IC50 (SNB-19, SNB-19): 223 nM
- IC50 (SNU1, SNU-1): 1040 nM
- IC50 (SNU-16, SNU-16): 34.4 nM
- IC50 (SNU-423, SNU-423): 66 nM
- IC50 (SR): 275 nM
- IC50 (ST486, ST486): 101 nM
- IC50 (SU.86.86, SU.86.86): 934 nM
- IC50 (SW13, SW-13): 211 nM
- IC50 (SW48, SW48): > 10000 nM
- IC50 (SW480, SW480): 413 nM
- IC50 (SW579, SW579): 83.3 nM
- IC50 (SW684, SW684): 1170 nM
- IC50 (SW837, SW837): 102 nM
- IC50 (SW872, SW872): 54 nM
- IC50 (SW900, SW900): 3250 nM
- IC50 (SW948, SW948): 120 nM
- IC50 (SW 954, SW954): > 10000 nM
- IC50 (SW1088, SW1088): 40.5 nM
- IC50 (SW1353, SW1353): 129 nM
- IC50 (SW1417, SW1417): 773 nM
- IC50 (SW1463, SW1463): 770 nM
- IC50 (SW1783, SW1783): 389 nM
- IC50 (SW-403, SW403): 153 nM
- IC50 (SW-620, SW620): 5640 nM
- IC50 (SiHa): 2510 nM
- IC50 (T47D): 52.4 nM
- IC50 (T98G): 27.3 nM
- IC50 (T-24, T24): 449 nM
- IC50 (TCC-SUP, TCCSUP): 235 nM
- IC50 (THP-1, Thp1): 80.5 nM
- IC50 (U138-MG, U-138MG): 43.3 nM
- IC50 (U266B1): 78.5 nM
- IC50 (U-87 MG): 67.6 nM
- IC50 (UMUC3, UM-UC-3): 105 nM
- IC50 (WI-38, Wi38): 18.5 nM
- IC50 (WiDr): 505 nM
- IC50 (Y79, Y79): 113 nM
- IC50 (YAPC): 168 nM
